According to patent US8580832B2, “Substituted phenoxy aminothiazolones as estrogen related receptor-α modulators” (Janssen Pharmaceutica N.V., priority 2007, dated 2013):

target: T1, ERR1 (also known as ERR-α or ERR-1) (Homo sapiens, UniProt P11474); test: TR-FRET assay: disruption of co-activator peptide binding to ERR1 LBD; assay type: biochemical; details: 6His-tagged ERR1 LBD 6 nM, GST-SRC-2 peptide 6 nM, 25° C., 4-18 hours; average of 3 independent experiments
T1 construct: the ^6His-tagged-ERR1 LBD
T1 sequence (P11474 193-421 limits assumed): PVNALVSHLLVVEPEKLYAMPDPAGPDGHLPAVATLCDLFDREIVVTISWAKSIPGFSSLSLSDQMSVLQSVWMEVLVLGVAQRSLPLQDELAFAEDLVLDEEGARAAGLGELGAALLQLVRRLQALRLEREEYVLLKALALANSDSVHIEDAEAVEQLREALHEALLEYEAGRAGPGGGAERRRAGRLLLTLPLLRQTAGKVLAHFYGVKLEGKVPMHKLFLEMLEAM
Description: Time-Resolved Fluorescence Resonance Energy Transfer (TR-FRET) experiments were performed to examine the functional response of ERR1 (also known as ERR-α or ERR-1) ligands. The TR-FRET assay described herein relied on the conformation of ERR1 for binding to a co-activator peptide: when a test compound binds to ERR1 and alters its conformation, it can disrupt the binding of the co-activator peptide. The components of this homogeneous secondary assay included: the ^6His-tagged-ERR1 LBD, a GST-labeled-hSRC2 co-activator polypeptide and a fluorescent donor/acceptor pair from CIS bio international htrf/bioassays (Bedford, Mass.) using both an α-GST Europium Cryptate (Eu) label and an α^6His-XL665 (allophycocyanin) fluorophore.
For TR-FRET measurements, the reaction was buffered in 25 mM Tris pH 8, 2.5 mM Hepes, 20 mM KCl, 1 mM DTT, and 0.05 mg/mL BSA (-lipids). […] Reactions were allowed to reach equilibrium at 25° C. for 4-18 hours before collecting data on the Analyst from LJL Biosystems (Molecular Devices Sunnyvale, Calif.). […] Dose response curves were fitted using a hyperbolic equation and the data reported is the average of 3 independent experiments.

`COc1cc(/C=C2\SC(NCCN3CCCCC3)=NC2=O)ccc1Oc1ccc(C#N)cc1C(F)(F)F` [Compound 25, 4-{2-Methoxy-4-[4-oxo-2-(2-piperidin-1-yl-ethylamino)-4H-thiazol-5-ylidenemethyl]-phenoxy}-3-trifluoromethyl-benzonitrile] and `COc1cc(/C=C2\SC(NCCN3CCOCC3)=NC2=O)ccc1Oc1ccc(C#N)cc1C(F)(F)F` [Example 33, 4-{2-Methoxy-4-[2-(2-morpholin-4-yl-ethylamino)-4-oxo-4H-thiazol-5-ylidenemethyl]-phenoxy}-3-trifluoromethyl-benzonitrile] are within 1.5-fold of each other in EC50: 18 nM for the first, 15 nM for the second.

`COc1cc(/C=C2\SC(NCCCN(C)C)=NC2=O)ccc1Oc1ccc(C#N)cc1C(F)(F)F` [Compound 26, 4-{4-[2-(3-Dimethylamino-propylamino)-4-oxo-4H-thiazol-5-ylidenemethyl]-2-methoxy-phenoxy}-3-trifluoromethyl-benzonitrile] and `CN(C)CCCNC1=NC(=O)/C(=C/c2ccc(Oc3ccc(C#N)cc3C(F)(F)F)c(F)c2)S1` [Example 48, 4-{4-[2-(3-Dimethylamino-propylamino)-4-oxo-4H-thiazol-5-ylidenemethyl]-2-fluoro-phenoxy}-3-trifluoromethyl-benzonitrile] are within 1.5-fold of each other in EC50: 13 nM for the first, 9 nM for the second.

`COc1cc(/C=C2\SC(NCCCN3CCOCC3)=NC2=O)ccc1Oc1ccc(C#N)cc1C(F)(F)F` [Example 27, 4-{2-Methoxy-4-[2-(3-morpholin-4-yl-propylamino)-4-oxo-4H-thiazol-5-ylidenemethyl]-phenoxy}-3-trifluoromethyl-benzonitrile] and `N#Cc1ccc(Oc2ccc(/C=C3\SC(NCCCN4CCOCC4)=NC3=O)cc2F)c(C(F)(F)F)c1` [Example 49, 4-{2-Fluoro-4-[2-(3-morpholin-4-yl-propylamino)-4-oxo-4H-thiazol-5-ylidenemethyl]-phenoxy}-3-trifluoromethyl-benzonitrile] are within 1.5-fold of each other in EC50: 11 nM for the first, 10 nM for the second.

First: COc1cc(/C=C2\SC(NCCc3ccncc3)=NC2=O)ccc1Oc1ccc(C#N)cc1C(F)(F)F [Example 28, 4-{2-Methoxy-4-[4-oxo-2-(2-pyridin-4-yl-ethylamino)-4H-thiazol-5-ylidenemethyl]-phenoxy}-3-trifluoromethyl-benzonitrile]
Second: COc1cc(/C=C2\SC(NCCc3cccnc3)=NC2=O)ccc1Oc1ccc(C#N)cc1C(F)(F)F [Example 29, 4-{2-Methoxy-4-[4-oxo-2-(2-pyridin-3-yl-ethylamino)-4H-thiazol-5-ylidenemethyl]-phenoxy}-3-trifluoromethyl-benzonitrile]
The EC50 of the first is 1.7-fold lower: 7 nM for the first, 12 nM for the second.

First: COc1cc(/C=C2\SC(NCCn3cccn3)=NC2=O)ccc1Oc1ccc(C#N)cc1C(F)(F)F [Example 30, 4-{2-Methoxy-4-[4-oxo-2-(2-pyrazol-1-yl-ethylamino)-4H-thiazol-5-ylidenemethyl]-phenoxy}-3-trifluoromethyl-benzonitrile]
Second: COc1cc(/C=C2\SC(NCCO)=NC2=O)ccc1Oc1ccc(C#N)cc1C(F)(F)F [Example 32, 4-{4-[2-(2-Hydroxy-ethylamino)-4-oxo-4H-thiazol-5-ylidenemethyl]-2-methoxy-phenoxy}-3-trifluoromethyl-benzonitrile]
The EC50 of the first is 2.2-fold higher: 47 nM for the first, 21 nM for the second.

First: COc1cc(/C=C2\SC(N3CCN(C(C)=O)CC3)=NC2=O)ccc1Oc1ccc(C#N)cc1C(F)(F)F [Example 31, 4-{4-[2-(4-Acetyl-piperazin-1-yl)-4-oxo-4H-thiazol-5-ylidenemethyl]-2-methoxy-phenoxy}-3-trifluoromethyl-benzonitrile]
Second: CCS(=O)(=O)N1CCN(C2=NC(=O)/C(=C/c3ccc(Oc4ccc(C#N)cc4C(F)(F)F)c(OC)c3)S2)CC1 [Example 38, 4-{4-[2-(4-Ethanesulfonyl-piperazin-1-yl)-4-oxo-4H-thiazol-5-ylidenemethyl]-2-methoxy-phenoxy}-3-trifluoromethyl-benzonitrile]
The EC50 of the first is 1.5-fold lower: 6 nM for the first, 9 nM for the second. The first is the more potent here.

`COc1cc(/C=C2\SC(NC[C@@H](O)CO)=NC2=O)ccc1Oc1ccc(C#N)cc1C(F)(F)F` [Example 34, 4-{4-[2-(2R,3-Dihydroxy-propylamino)-4-oxo-4H-thiazol-5-ylidenemethyl]-2-methoxy-phenoxy}-3-trifluoromethyl-benzonitrile] and `COc1cc(/C=C2\SC(NC[C@H](O)CO)=NC2=O)ccc1Oc1ccc(C#N)cc1C(F)(F)F` [Example 35, 4-{4-[2-(2S,3-Dihydroxy-propylamino)-4-oxo-4H-thiazol-5-ylidenemethyl]-2-methoxy-phenoxy}-3-trifluoromethyl-benzonitrile] are within 1.5-fold of each other in EC50: 19 nM for the first, 13 nM for the second.

Compared with `COc1cc(/C=C2\SC(NCCN3CCCC3=O)=NC2=O)ccc1Oc1ccc(C#N)cc1C(F)(F)F` [Example 36, 4-(2-Methoxy-4-{4-oxo-2-[2-(2-oxo-pyrrolidin-1-yl)-ethylamino]-4H-thiazol-5-ylidenemethyl}-phenoxy)-3-trifluoromethyl-benzonitrile], `N#Cc1ccc(Oc2ccc(/C=C3\SC(NCCCN4CCCC4=O)=NC3=O)cc2F)c(C(F)(F)F)c1` [Example 51, 4-(2-Fluoro-4-{4-oxo-2-[3-(2-oxo-pyrrolidin-1-yl)-propylamino]-4H-thiazol-5-ylidenemethyl}-phenoxy)-3-trifluoromethyl-benzonitrile] is 3.6-fold higher in EC50: 8 nM for the first, 29 nM for the second.

Going from `COc1cc(/C=C2\SC(N(C)CCN)=NC2=O)ccc1Oc1ccc(C#N)cc1C(F)(F)F` [Example 37, 4-(4-{2-[(2-Amino-ethyl)-methyl-amino]-4-oxo-4H-thiazol-5-ylidenemethyl}-2-methoxy-phenoxy)-3-trifluoromethyl-benzonitrile] to `CN(CC(O)CO)C1=NC(=O)/C(=C/c2ccc(Oc3ccc(C#N)cc3C(F)(F)F)c(F)c2)S1` (stereo not drawn) [Example 50, 4-(4-{2-[(2,3-Dihydroxy-propyl)-methyl-amino]-4-oxo-4H-thiazol-5-ylidenemethyl}-2-fluoro-phenoxy)-3-trifluoromethyl-benzonitrile], the EC50 falls from 100 nM to 12 nM (8.3-fold). The second is the more potent here.

Going from `COc1cc(/C=C2\SC(N3CCC(O)C3)=NC2=O)ccc1Oc1ccc(C#N)cc1C(F)(F)F` (stereo not drawn) [Example 39, 4-{4-[2-(3-Hydroxy-pyrrolidin-1-yl)-4-oxo-4H-thiazol-5-ylidenemethyl]-2-methoxy-phenoxy}-3-trifluoromethyl-benzonitrile] to `N#Cc1ccc(Oc2ccc(/C=C3\SC(N4CCC(O)C4)=NC3=O)cc2F)c(C(F)(F)F)c1` (stereo not drawn) [Example 45, 4-{2-Fluoro-4-[2-(3-hydroxy-pyrrolidin-1-yl)-4-oxo-4H-thiazol-5-ylidenemethyl]-phenoxy}-3-trifluoromethyl-benzonitrile], the EC50 rises from 9 nM to 39 nM (4.3-fold). The first is the more potent here.

First: COc1cc(/C=C2\SC(N3CC(C)OC(C)C3)=NC2=O)ccc1Oc1ccc(C#N)cc1C(F)(F)F (stereo not drawn) [Example 40, 4-{4-[2-(2,6-Dimethyl-morpholin-4-yl)-4-oxo-4H-thiazol-5-ylidenemethyl]-2-methoxy-phenoxy}-3-trifluoromethyl-benzonitrile]
Second: CC1CN(C2=NC(=O)/C(=C/c3ccc(Oc4ccc(C#N)cc4C(F)(F)F)c(F)c3)S2)CC(C)O1 (stereo not drawn) [Example 46, 4-{4-[2-(2,6-Dimethyl-morpholin-4-yl)-4-oxo-4H-thiazol-5-ylidenemethyl]-2-fluoro-phenoxy}-3-trifluoromethyl-benzonitrile]
The EC50 of the first is 2.7-fold lower: 7 nM for the first, 19 nM for the second. The first is the more potent here.

`N#Cc1ccc(Oc2ccc(/C=C3\SC(N(CCO)CCO)=NC3=O)cc2F)c(C(F)(F)F)c1` [Example 41, 4-(4-{2-[Bis-(2-hydroxy-ethyl)-amino]-4-oxo-4H-thiazol-5-ylidenemethyl}-2-fluoro-phenoxy)-3-trifluoromethyl-benzonitrile] and `N#Cc1ccc(Oc2ccc(/C=C3\SC(N4CCNC(=O)C4)=NC3=O)cc2F)c(C(F)(F)F)c1` [Example 47, 4-{2-Fluoro-4-[4-oxo-2-(3-oxo-piperazin-1-yl)-4H-thiazol-5-ylidenemethyl]-phenoxy}-3-trifluoromethyl-benzonitrile] are within 1.5-fold of each other in EC50: 18 nM for the first, 19 nM for the second.

Going from `CN1CCN(C2=NC(=O)/C(=C/c3ccc(Oc4ccc(C#N)cc4C(F)(F)F)c(F)c3)S2)CC1=O` [Example 43, 4-{2-Fluoro-4-[2-(4-methyl-3-oxo-piperazin-1-yl)-4-oxo-4H-thiazol-5-ylidenemethyl]-phenoxy}-3-trifluoromethyl-benzonitrile] to `CCS(=O)(=O)N1CCN(C2=NC(=O)/C(=C/c3ccc(Oc4ccc(C#N)cc4C(F)(F)F)c(F)c3)S2)CC1` [Example 44, 4-{4-[2-(4-Ethanesulfonyl-piperazin-1-yl)-4-oxo-4H-thiazol-5-ylidenemethyl]-2-fluoro-phenoxy}-3-trifluoromethyl-benzonitrile], the EC50 rises from 22 nM to 68 nM (3.1-fold).

Compound `COC(=O)c1ccc(Oc2ccc(/C=C3\SC(N4CC(C(=O)O)C4)=NC3=O)cc2OC)c(C(F)(F)F)c1` [Example 52, 1-{5-[3-Methoxy-4-(4-methoxycarbonyl-2-trifluoromethyl-phenoxy)-benzylidene]-4-oxo-4,5-dihydro-thiazol-2-yl}-azetidine-3-carboxylic acid] has an EC50 of 2 nM.
